Here are results for 18 compounds from patent publication US10638756B2, “Molecules having pesticidal utility, and intermediates, compositions, and processes, related thereto” (Dow AgroSciences LLC, priority 2017, dated 2020).

The test system of assay [1] is Cabbage Looper (Trichoplusia ni). Put plainly: Bioassay on Cabbage Looper (CL), 128-well diet tray assay. It counts as in vivo. The settings on record: 168 h, 50 μg/cm^2 on artificial diet, second instar larvae, five to seven days, read-out: CL % Control (or Mortality) rating. The method in brief: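 Activity is mean percent mortality over eight wells of second-instar larvae exposed to diet treated at 50 μg/cm^2 for 5–7 days at 25° C.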

In assay [2] the test system is Beet Armyworm (Spodoptera exigua). Nature of the assay: Bioassay on Beet Armyworm (BAW), 128-well diet tray assay. It counts as in vivo. The conditions noted are these: Spodoptera exigua, 168 h; 50 μg/cm^2 on artificial diet, second instar larvae, five to seven days; read-out: BAW % Control (or Mortality) rating.

By mortality is commonly meant the share of the test organisms that died.

With `O=C(NNc1cnccn1)c1ccc(/C(F)=C/C(c2cc(Cl)c(Cl)c(Cl)c2)C(F)(F)F)cc1C(F)(F)F` (stereo not drawn) [F92, (Z)—N′-(Pyrazin-2-yl)-4-(1,4,4,4-tetrafluoro-3-(3,4,5-trichlorophenyl)but-1-en-1-yl)-2-(trifluoromethyl)benzohydrazide], the mortality at 50 µg/cm2 in assay [1] and in assay [2] was 50 to 100% in each case.
Take `O=C(NNc1ccc(Cl)cn1)c1ccc(/C(F)=C/C(c2cc(Cl)c(Cl)c(Cl)c2)C(F)(F)F)cc1C(F)(F)F` (stereo not drawn) [F93, (Z)—N′-(5-Chloropyridin-2-yl)-4-(1,4,4,4-tetrafluoro-3-(3,4,5-trichlorophenyl)but-1-en-1-yl)-2-(trifluoromethyl)benzohydrazide]: the mortality at 50 µg/cm2 in assay [1] and in assay [2] was 50 to 100% each time.
In the case of `O=C(NNc1ncccn1)c1ccc(/C(F)=C/C(c2cc(Cl)c(Cl)c(Br)c2)C(F)(F)F)cc1C(F)(F)F` (stereo not drawn) [F96, (Z)-4-(3-(3-Bromo-4,5-dichlorophenyl)-1,4,4,4-tetrafluorobut-1-en-1-yl)-N′-(pyrimidin-2-yl)-2-(trifluoromethyl)benzohydrazide], the mortality at 50 µg/cm2 in assay [1] and in assay [2] was 50 to 100% in each case.
Turning to `NN(CC1CC1)C(=O)c1ccc(/C(F)=C/C(c2cc(Cl)c(Cl)c(Cl)c2)C(F)(F)F)cc1C(F)(F)F` (stereo not drawn) [F98, (Z)—N-(Cyclopropylmethyl)-4-(1,4,4,4-tetrafluoro-3-(3,4,5-trichlorophenyl)but-1-en-1-yl)-2-(trifluoromethyl)benzohydrazide], the mortality at 50 µg/cm2 in assay [1] and in assay [2] was 50 to 100% in each case.
Take `O=C(NNc1ncc(C(F)(F)F)cn1)c1ccc(/C(F)=C/C(c2cc(Cl)c(Cl)c(Cl)c2)C(F)(F)F)cc1C(F)(F)F` (stereo not drawn) [F101, (Z)-4-(1,4,4,4-Tetrafluoro-3-(3,4,5-trichlorophenyl)but-1-en-1-yl)-2-(trifluoromethyl)-N′-(5-(trifluoromethyl)pyrimidin-2-yl)benzohydrazide]: the mortality at 50 µg/cm2 in assay [1] and in assay [2] was 50 to 100% in each case.
As to `O=C(NNCCCC(F)(F)F)c1ccc(/C(F)=C/C(c2cc(Cl)c(Cl)c(Cl)c2)C(F)(F)F)cc1C(F)(F)F` (stereo not drawn) [F103, (Z)-4-(1,4,4,4-tetrafluoro-3-(3,4,5-trichlorophenyl)but-1-en-1-yl)-N′-(4,4,4-trifluorobutyl)-2-(trifluoromethyl)benzohydrazide], the mortality at 50 µg/cm2 in assay [1] and in assay [2] was 50 to 100% in each case.
Turning to `O=C(NNc1cncc(Cl)n1)c1ccc(/C(F)=C/C(c2cc(Cl)c(Cl)c(Cl)c2)C(F)(F)F)cc1C(F)(F)F` (stereo not drawn) [F104, (Z)—N′-(6-Chloropyrazin-2-yl)-4-(1,4,4,4-tetrafluoro-3-(3,4,5-trichlorophenyl)but-1-en-1-yl)-2-(trifluoromethyl)benzohydrazide], the mortality at 50 µg/cm2 in assay [1] and in assay [2] was 50 to 100% each time.
Consider `Cc1cc(O)nc(NNC(=O)c2ccc(/C(F)=C/C(c3cc(Cl)c(Cl)c(Cl)c3)C(F)(F)F)cc2C(F)(F)F)n1` (stereo not drawn) [F105, (Z)—N′-(4-Hydroxy-6-methylpyrimidin-2-yl)-4-(1,4,4,4-tetrafluoro-3-(3,4,5-trichlorophenyl)but-1-en-1-yl)-2-(trifluoromethyl)benzohydrazide], for which the mortality at 50 µg/cm2 in assay [1] and in assay [2] was 50 to 100% throughout.
In the case of `O=C(NNc1ncccn1)c1ccc(/C(F)=C/C(c2cc(Cl)cc(OC(F)(F)F)c2)C(F)(F)F)cc1C(F)(F)F` (stereo not drawn) [F106, (Z)-4-(3-(3-Chloro-5-(trifluoromethoxy)phenyl)-1,4,4,4-tetrafluorobut-1-en-1-yl)-N′-(pyrimidin-2-yl)-2-(trifluoromethyl)benzohydrazide], the mortality at 50 µg/cm2 in assay [1] and in assay [2] was 50 to 100% in each case.
In the case of `CN(NC(=O)c1ccc(/C(F)=C/C(c2ccc(OC(F)(F)F)c(Cl)c2)C(F)(F)F)cc1C(F)(F)F)c1ccccn1` (stereo not drawn) [F107, (Z)-4-(3-(3-Chloro-4-(trifluoromethoxy)phenyl)-1,4,4,4-tetrafluorobut-1-en-1-yl)-N′-methyl-N′-(pyridin-2-yl)-2-(trifluoromethyl)benzohydrazide], the mortality at 50 µg/cm2 in assay [1] and in assay [2] was 50 to 100% each time.
Turning to `O=C(NNC1CCCC1)c1ccc(/C(F)=C/C(c2cc(Cl)c(Cl)c(Cl)c2)C(F)(F)F)cc1C(F)(F)F` (stereo not drawn) [F110, (Z)—N′-Cyclopentyl-4-(1,4,4,4-tetrafluoro-3-(3,4,5-trichlorophenyl)but-1-en-1-yl)-2-(trifluoromethyl)benzohydrazide], the mortality at 50 µg/cm2 in assay [1] and in assay [2] was 50 to 100% throughout.
As for `NN(C(=O)c1ccc(/C(F)=C/C(c2cc(Cl)c(Cl)c(Cl)c2)C(F)(F)F)cc1C(F)(F)F)C1CC1` (stereo not drawn) [F112, (Z)—N-Cyclopropyl-4-(1,4,4,4-tetrafluoro-3-(3,4,5-trichlorophenyl)but-1-en-1-yl)-2-(trifluoromethyl)benzohydrazide], the mortality at 50 µg/cm2 in assay [1] and in assay [2] was 50 to 100% each time.
In the case of `CN(NC(=O)c1ccc(/C(F)=C/C(c2ccc(F)c(C(F)(F)F)c2)C(F)(F)F)cc1C(F)(F)F)c1ncccn1` (stereo not drawn) [F113, (Z)—N′-Methyl-N′-(pyrimidin-2-yl)-4-(1,4,4,4-tetrafluoro-3-(4-fluoro-3-(trifluoromethyl)phenyl)but-1-en-1-yl)-2-(trifluoromethyl)benzohydrazide], the mortality at 50 µg/cm2 in assay [1] and in assay [2] was 50 to 100% each time.
`O=C(NNc1ncc(F)cn1)c1ccc(/C(F)=C/C(c2cc(Cl)c(Cl)c(Cl)c2)C(F)(F)F)cc1C(F)(F)F` (stereo not drawn) [F114, (Z)—N′-(5-Fluoropyrimidin-2-yl)-4-(1,4,4,4-tetrafluoro-3-(3,4,5-trichlorophenyl)but-1-en-1-yl)-2-(trifluoromethyl)benzohydrazide]: the mortality at 50 µg/cm2 in assay [1] and in assay [2] was 50 to 100% each time.
In the case of `O=C(NNC1=NCCN1)c1ccc(/C(F)=C/C(c2cc(Cl)c(Cl)c(Cl)c2)C(F)(F)F)cc1C(F)(F)F` (stereo not drawn) [F116, (Z)—N′-(4,5-Dihydro-1H-imidazol-2-yl)-4-(1,4,4,4-tetrafluoro-3-(3,4,5-trichlorophenyl)but-1-en-1-yl)-2-(trifluoromethyl)benzohydrazide], the mortality at 50 µg/cm2 in assay [1] and in assay [2] was 50 to 100% in each case.
`O=C(NNc1ccccc1[N+](=O)[O-])c1ccc(/C(F)=C/C(c2cc(Cl)c(Cl)c(Cl)c2)C(F)(F)F)cc1C(F)(F)F` (stereo not drawn) [F118, (Z)—N′-(2-nitrophenyl)-4-(1,4,4,4-tetrafluoro-3-(3,4,5-trichlorophenyl)but-1-en-1-yl)-2-(trifluoromethyl)benzohydrazide]: the mortality at 50 µg/cm2 in assay [1] and in assay [2] was 50 to 100% throughout.
In the case of `O=C(NNc1cccnc1)c1ccc(/C(F)=C/C(c2cc(Cl)c(Cl)c(Cl)c2)C(F)(F)F)cc1C(F)(F)F` (stereo not drawn) [F121, (Z)—N′-(Pyridin-3-yl)-4-(1,4,4,4-tetrafluoro-3-(3,4,5-trichlorophenyl)but-1-en-1-yl)-2-(trifluoromethyl)benzohydrazide], the mortality at 50 µg/cm2 in assay [1] and in assay [2] was 50 to 100% throughout.
`CN(NC(=O)c1ccc(/C(F)=C/C(c2cc(Br)c(F)c(Br)c2)C(F)(F)F)cc1C(F)(F)F)c1ccccc1` (stereo not drawn) [F123, (Z)-4-(3-(3,5-Dibromo-4-fluorophenyl)-1,4,4,4-tetrafluorobut-1-en-1-yl)-N′-methyl-N′-phenyl-2-(trifluoromethyl)benzohydrazide]: the mortality at 50 µg/cm2 in assay [1] and in assay [2] was 50 to 100% in each case.
